Reference: the PolyMetriX glass transition set
± gives the standard deviation of the reports.

| glass transition temperature [°C] | Compound |
| --- | --- |
| 139.00 | *Oc1ccc(C(=O)c2cccc(C(=O)c3ccc(*)cc3)c2)cc1 (repeat unit) |
| 166.00 | *CCCCCCOc1ccc(NC(=O)c2cc(C(=O)Nc3ccc(O*)cc3)cc(C(C)(C)C)c2)cc1 (repeat unit) |
| 200.00 | */C(=C(/*)c1ccc(Oc2ccccc2)cc1)c1ccccc1 (repeat unit) |
| 179.00 | *C(=O)c1ccc(C(=O)N(*)c2ccccc2)cc1 (repeat unit) |
| 146.00 | *Oc1cccc(C(=O)c2ccc(Oc3ccc(C(=O)c4ccc(*)cc4)cc3)cc2)c1 (repeat unit) |
| 237.10 | *Oc1ccc(S(=O)(=O)c2ccc(Oc3ccc(C(C)(C)c4ccc(*)c(N)c4)cc3N)cc2)c(N)c1 (repeat unit) |
| 158.17 | *Oc1c(C)cc(-c2cc(C)c(Oc3ccc(C(=O)c4ccc(*)cc4)cc3)c(CBr)c2)cc1CBr (repeat unit) |
| 61.00 | *CCCCCCOC(=O)OCCCOC(=O)OCCCCCCN1C(=O)c2ccc(C(=O)c3ccc4c(c3)C(=O)N(*)C4=O)cc2C1=O (repeat unit) |
| 311.00 | *c1ccc2c(c1)C(=O)N(c1cccc(C(=O)Nc3ccc(NC(=O)c4cccc(N5C(=O)c6ccc(C(*)(C(F)(F)F)C(F)(F)F)cc6C5=O)c4)cc3)c1)C2=O (repeat unit) |
| 113.00 | *CCCCCC(=O)Oc1ccc2ccc(OC(=O)c3ccc4c(c3)C(=O)N(*)C4=O)cc2c1 (repeat unit) |
| 38.00 | *CC(*)C(=O)OCCCCCC(=O)Oc1ccc(-c2ccc(C#N)cc2)cc1 (repeat unit) |
| 187.00 | *Oc1ccc(-c2ccc(Oc3ccc(C(=O)c4ccc(C(=O)c5ccc(*)c(C(F)(F)F)c5)cc4)cc3C(F)(F)F)cc2)cc1 (repeat unit) |
| 362.50 ± 25 | *c1ccc(C(c2ccc(-n3c(=O)c4cc5c(=O)n(*)c(=O)c5cc4c3=O)cc2)(C(F)(F)F)C(F)(F)F)cc1 (repeat unit) |
| 76.00 | *Oc1ccc(CC(NC(=O)CCc2ccc(OC(=O)COCC(*)=O)cc2)C(=O)OCc2ccccc2)cc1 (repeat unit) |
| 290.00 | *C(=O)c1ccc2c(c1)C(=O)N(c1ccc(Cc3ccccc3N3C(=O)c4ccc(*)cc4C3=O)cc1)C2=O (repeat unit) |
| 67.00 | *Oc1ccc(CC(NC(=O)CCc2ccc(OC(=O)CCC(*)=O)cc2)C(=O)OCCCC)cc1 (repeat unit) |
| 91.00 | *CC(*)(C)C(=O)OCCCCCn1c2ccccc2c2ccccc21 (repeat unit) |
| 9.20 | *O[Si](*)(C)CCCOc1ccc(/N=N/c2ccc(S(=O)(=O)O)cc2)cc1 (repeat unit) |
| -7.70 | *CCCCCCOC(=O)OCCCCCCCCOC(=O)OCCCCCCOc1ccc(C(=O)c2ccc(O*)cc2)cc1 (repeat unit) |
| 58.00 | *Oc1ccc(CC(NC(=O)CCc2ccc(OC(=O)COCCOCC(*)=O)cc2)C(=O)OC(C)C)cc1 (repeat unit) |
| 53.00 | *CCCCCOc1ccc(C(=O)OC(=O)c2ccc(O*)cc2)cc1 (repeat unit) |
| 62.00 | *OC(=O)c1ccc(SCCCCSc2ccc(C(*)=O)cc2)cc1 (repeat unit) |
| 236.00 | *Oc1ccc(/C(=C/c2ccc(-c3ccc(/C=C(\c4ccccc4)c4ccc(OC(=O)c5ccc(C(*)=O)cc5)cc4)cc3)cc2)c2ccccc2)cc1 (repeat unit) |
| 73.00 | *CCOC(=O)c1ccc(-c2ccc(C(=O)O*)cc2C)c(C)c1 (repeat unit) |
| 136.00 | *Oc1ccc(C(=O)c2cccc(C(=O)c3ccc(*)c(C(C)C)c3)c2)cc1CC (repeat unit) |

Continued, molecule first:

| Compound | glass transition temperature [°C] |
| --- | --- |
| */C=C/C1CC(*)C(C#N)(C[Si](C)(C)O[Si](C)(C)C)C1 (repeat unit) | 68.00 |
| *CC(*)(C)C(=O)OCCC[Si](OC)(OC)OC (repeat unit) | 9.00 |
| *CCCOC(=O)C(C)O* (repeat unit) | -33.00 |
| *OC(COC(=O)C12CC3CC(CC(C(*)=O)(C3)C1)C2)COc1ccc(/N=N/c2ccc(C#N)cc2)cc1 (repeat unit) | 105.00 |
| *CC(*)(C)c1ccc2ccccc2c1 (repeat unit) | 208.00 |
| *c1ccc2c(c1)C(=O)N(c1c(C)cc(C3(c4cc(C)c(N5C(=O)c6ccc(C(*)(C(F)(F)F)C(F)(F)F)cc6C5=O)c(C)c4)c4ccccc4-c4ccccc43)cc1C)C2=O (repeat unit) | 361.00 |
| *CC(*)(C)C(=O)OCCCC1CCCCC1 (repeat unit) | 60.00 |
| *c1ccc(N2C(=O)c3ccc(P(=O)(c4ccccc4)c4ccc5c(c4)C(=O)N(*)C5=O)cc3C2=O)cc1 (repeat unit) | 366.00 |
| *Oc1ccc(NC(=C(C#N)C#N)c2ccc(-c3ccc(C(Nc4ccc(*)cc4)=C(C#N)C#N)cc3)cc2)cc1 (repeat unit) | 220.00 |
| *O[Si](O[Si](C)(C)c1ccc([Si](*)(C)C)cc1)(c1ccccc1)c1ccccc1 (repeat unit) | 0.00 |
| *c1cc(C(C(=O)OC)C(=O)OC)c(*)s1 (repeat unit) | -20.10 |
| *Cc1ccc(CNC(=O)CCCCCCCCCCCCCC(=O)N*)cc1 (repeat unit) | 90.00 |
| *CCCCCCOC(=O)NNC(=O)CCCCCCCCC(=O)NNC(=O)O* (repeat unit) | 45.00 |
| *CC(*)NC=O (repeat unit) | 150.00 |
| *CC(C)(C)COC(=O)C1CCC(C(=O)O*)CC1 (repeat unit) | 30.00 |
| *CCCCCCCCCCNC(=O)CCCCC(=O)N* (repeat unit) | 45.00 |
| *OC1C(COC(C)=O)OC(*)C(OC(C)=O)C1O (repeat unit) | 202.00 |
| *c1ccc2c(c1)C(=O)N(c1ccc(Oc3cccc(-c4cc(-c5ccccc5)cc(-c5cccc(Oc6ccc(N7C(=O)c8ccc(C(*)(C(F)(F)F)C(F)(F)F)cc8C7=O)cc6)c5)n4)c3)cc1)C2=O (repeat unit) | 180.00 |
| *Sc1ccc(C(=O)c2ccc(C(C)(C)c3ccc(C(=O)c4ccc(*)cc4)cc3)cc2)cc1 (repeat unit) | 175.00 |
| *Oc1ccc(-c2ccc(Oc3ccc(/C(=N/c4ccc(/N=C(\c5ccccc5)c5ccc(*)cc5)cc4)c4ccccc4)cc3)cc2)cc1 (repeat unit) | 195.00 |
| *CCCCCCCCCCOc1ccc(/C=C2\CC/C(=C\c3ccc(OCCCCCCCCCCOP(=O)(O*)OC)c(OC)c3)C2=O)cc1OC (repeat unit) | 48.00 |
| *c1ccc(N/C=N/c2ccc(S(*)(=O)=O)cc2)cc1 (repeat unit) | 163.00 |
| *c1ccc(OCCCCOc2ccc(-c3nc4ccc(-c5ccc6nc(*)c(-c7ccccc7)nc6c5)cc4nc3-c3ccccc3)cc2)cc1 (repeat unit) | 240.00 |
| *c1cc(C(C)(C)c2ccc(O)cc2)cc(*)c1O (repeat unit) | 135.00 |
| *CCCCCCOC(=O)C(CCCCCP(=O)(O)O)C(=O)OCCCCCCOc1ccc(-n2on2-c2ccc(O*)cc2)cc1 (repeat unit) | 17.00 |
